Test results reported in patent publication US9624254B2, “Hydroxysafflor yellow pharmaceutical salts” (ZHEJIANG YONGNING PHARMACEUTICAL CO LTD, priority 2013, dated 2017).
“And” between values parts separate entries of the source, which are not always exact repeats. Equal entries are not always repeated. Where two headings read alike, the source gives them in different places.

Tests used:
[1] = type: physicochemical; details: for Content: calculated as hydroxysafflor yellow A
[2] = test system: acute cerebral ischemia model (MCAO); type: in vivo, rat
[3] = test system: permeability of cerebral vessel; type: in vivo, rat
Method: 3. Effect on vasopermeability in rats: Rats were injected intravenously, once per day, for 7 days. After the last dose, rats were anesthetized, injected intravenously with Evans blue 50 mg/kg. After 5 minutes, bilateral common carotid arteries were ligated. The animals were sacrificed by decapitation after 3 hours. The brain was removed, weighed and immersed in formamide solution. It was placed in an incubator at 45° C. for 72 h. During this period, Evans blue in the cerebral vessel could be leached out into formamide solution. Testing the amount of Evans blue leached out into the formamide solution with spectrophotometer could indicate permeability of cerebral vessel.

[4] = test system: platelet aggregation induced by ADP; test: Anti-platelet aggregation, instrument testing (platelet aggregometer), ADP; type: in vivo; details: rabbit, intravenous once per day for 5 days, blood 2 hours after last dose, three doses
Method: (§1) 6. Anti-platelet aggregation: The study included two stages, instrument testing and in vivo test. […] 4 ml of blood was taken from heart 2 hours after the last dose. The blood was centrifuged under a low speed to obtain platelet-rich […]; and centrifuged under a high speed to obtain […] lacking platelet. Adenosine diphosphate (ADP) and platelet-activating factor (PAF) were chosen as the platelet aggregation inducing agent. And platelet aggregometer was used for testing. […] 2) In vivo method: An arteriovenous short was created with latex tubing in rats. There was surgical silk mounted in the latex tubing. Using characteristics of platelet adhesion, the short was opened to allow blood to flow trans-arteriovenously through the latex tubing. And then silk was removed and weighed. The weight of platelet adhered to the silk was calculated by subtracting the dry weight.

[5] = test system: acute myocardial infarction among rats; test: Rat acute myocardial infarction model (coronary ligature): arrhythmia ranking, infarcted area, myocardial enzymes; type: in vivo
Method: Test method • 1. Preparation of rat acute myocardial infarction model: Intraperitoneal anesthesia was performed with 3% sodium pentobarbital, 45 mg/kg. Right femoral artery and vein catheter were inserted for blood pressure monitoring and intravenous administration, respectively. Artificial mechanical ventilation was given through tracheal intubation at a rate of 60 times/min, and with a ventilation volume of about 10 ml/kg. Electrocardiogram (ECG) was recorded by placing needle electrode in limbs. A longitudinal skin incision was made approximately 0.5 cm to left sternal border, followed by blunt dissection of the subcutaneous tissue. The pectoralis major, pectoralis minor, and the intercostal muscle were dissected, ligated and cut with scissors successively. The chest was open from the fourth intercostal space along the left sternal border where apical beat is most significant. Cut the pericardium open with scissors, and clamp the pericardium to bilateral chest wall with hemostatic forceps, to form a pericardial bed and expose vessels on the surface of the left ventricle. 6-0 silk suture was threaded through superficial layer of myocardium (i.e. the anterior descending coronary artery) about 2 mm under the left auricle. […] Arrhythmia ranking: The severity of arrhythmia which occurred within 30 min after coronary ligature was scored. • 3. Myocardial enzyme test: At the end of test, 2 ml of venous blood was taken, and centrifuged under 4° C. and 4000/min for 5 min. The supernatant was taken for myocardial enzyme test. Test items: LDH, AKP, CK. • 4. Measurement of myocardial infarcted area: 4 h after coronary ligature, puncture was performed to the anterior wall of the left ventricle, and carbon ink was injected. Then the animal was sacrificed, and the heart was removed and cleaned with normal saline. Blood and non-myocardial tissue such as vessel and fat were removed. Moisture was dried with absorbent paper. Then the heart was weighed. The heart was cut into sections of about 2 mm from cardiac apex to the base of heart parallel. The perfusion area (perfused with ink) and area at high risk of ischemia (without ink perfusion). […] The nonobstructive heart muscle stained was cut off with scissors, and the non-stained infarcted heart muscle was weighed, to calculate percentage of infarcted heart muscle in the area of heart muscle at risk by weight (weight of infarction area/weight of area at risk*100%). Statistical Analysis:
All the test data was expressed as mean±standard deviation, statistical test was done with analysis of variance (ANOVA), and the difference was considered significant if P<0.05.

acute hypoxia = test: Acute cerebral anoxia, survival in a closed vessel; type: in vivo, mouse; details: Kunming mice
Method: 5. Effect on acute cerebral anoxia: A study was carried out using Kunming mice […]. The animals were kept in an environment lacking oxygen. The survival duration was recorded to examine whether resistance to acute hypoxia was increased after animals given the medicine. […] Animals were kept in the container until respiration ceased.

[6] = test system: platelet adhered to the silk; type: in vivo, rat
Method: as §1

[7] = test system: coronary ring from beagles (cardiac vascular ring); parameters: species or system dog
Source text: (§2) 1. Selectivity of isolated heart and cerebral vessel from dogs: During this study, Willis arteries and coronary ring from beagles were mounted on ex vivo vascular measuring device. Adjust the tension sensor, and add 10-6 mol/L phenylephrine into the liquid in bath cup, so as to maintain vascular tension. […] Calculate vasoconstriction or vasodilation change value.

[8] = test system: Willis arteries from beagles (cerebral vascular ring); parameters: species or system dog
Source text: as §2

blood viscosity = type: in vivo; details: rabbit
Method: 7. Effect on blood viscosity: Rabbit was treated intravenously, once per day, for 5 days. 2 hours after the last dose, blood was taken from heart and anticoagulated, and tested with blood rheometer directly.

[9] = test system: platelet aggregation induced by PAF; test: Anti-platelet aggregation, instrument testing (platelet aggregometer), PAF; type: in vivo; details: rabbit, intravenous once per day for 5 days, blood 2 hours after last dose, three doses
Method: as §1

cerebral blood flow = type: in vivo, dog
Source text: 4. Effect on cerebral blood flow of dog: Beagles were used as the study animal. After the dog was anesthetized with sodium pentobarbital, external jugular vein, internal jugular vein and vertebral artery were isolated surgically. The external jugular vein was ligated. Flow probes were placed in internal jugular vein and vertebral artery. Two times of the total blood flow recorded by both probes represented blood supply of the whole brain. At the end of the study, the brain was removed and weighed to calculate blood flow per 100 g of brain tissue.

[10] = serum, rats, 40 mg/kg intravenously, end of test
[11] = 10-6 mol/L phenylephrine tension, 10 mg/ml added every 5 min, 4-5 times
[12] = beagles, intravenous, medium and high dose

O=C(/C=C/c1ccc(O)cc1)C1=C(O)C(O)(C2OC(CO)C(O)C(O)C2O)C([O][Mg][O]C2=C(C3OC(CO)C(O)C(O)C3O)C(=O)C(C(=O)/C=C/c3ccc(O)cc3)=C(O)C2(O)C2OC(CO)C(O)C(O)C2O)=C(C2OC(CO)C(O)C(O)C2O)C1=O (centres unmarked) [Magnesium hydroxysafflor yellow A]
Total purity ([1]; Accelerated 0 month): 1.0% | Content ([1]; Accelerated 0 month): 97.4% | Total purity ([1]; Accelerated 1 month): 1.3% | Content ([1]; Accelerated 1 month): 97.0% | Total purity ([1]; Accelerated 2 months): 1.8% | Content ([1]; Accelerated 2 months): 96.4% | Total purity ([1]; Accelerated 3 months): 2.4% | Content ([1]; Accelerated 3 months): 95.8%

COCCOC(=O)C1=C(C)NC(C)=C(C(=O)OC(C)C)C1c1cccc([N+](=O)[O-])c1 (centres unmarked) [nimodipine, reference compound]
Area of cerebral infarction ([2]; SD rats, positive group, 24 h after MCAO): 15.7%

Potassium hydroxysafflor yellow A
Evans blue leached out from cerebral vessel (in words) ([3]; rats, intravenous once per day for 7 days, high and medium dose groups): very significant effect of reducing Evans blue being leached out from cerebral vessel | Effect against platelet aggregation induced by ADP (in words) [4]: very good anti-platelet aggregation effect | Extent of myocardial infarction compared to hydroxysafflor yellow for injection (in words) ([5]; rats): better efficacy in terms of reducing the extent of myocardial infarction | Infarction area ([5]; rats, 40 mg/kg intravenously, 4 h after coronary ligature, NBT staining, mean±SD): 0.10 ± 0.02 g | Infarction rate (%) ([5]; rats, 40 mg/kg intravenously, weight of infarction area/weight of area at risk*100%): 26 ± 9 % | Arrhythmia ranking ([5]; rats, 40 mg/kg intravenously, within 30 min after coronary ligature, mean±SD, n=8): 1.38 ± 0.5 | Effect on serum LDH and CK (in words) ([5]; rats, given intravenously): more significant efficacy | Effect on severity of arrhythmia (in words) ([5]; rats, given intravenously, after coronary ligature): more effective | AKP (IU/L) [5, 10]: 144 ± 19 IU/L | CK (IU/L) [5, 10]: 2203 ± 530 IU/L | LDH (IU/L) [5, 10]: 451 ± 78 IU/L | Survival duration (acute hypoxia; high dose): 36 min | Survival duration (acute hypoxia; low dose): 36 min | Survival duration (acute hypoxia; medium dose): 37 min | Weight of platelet adhered on the silk ([6]; rats, arteriovenous short, high dose): 8.91 ± 1.34 mg | Weight of platelet adhered on the silk ([6]; rats, arteriovenous short, low dose): 13.6 ± 1.89 mg | Weight of platelet adhered on the silk ([6]; rats, arteriovenous short, medium dose): 9.90 ± 1.53 mg | Dilation on cardiac vascular ring [7, 11]: 31.6% | Dilation on cerebral vascular ring [8, 11]: 73.1% | Area of cerebral infarction ([2]; rat, in vivo, iv): 38.2% and 27.6% and 21.9% | Blood viscosity effect compared with nimodipine positive control (in words) (blood viscosity; high dose groups): superior to the positive control group | Blood viscosity, low shear, medium shear and high shear (in words) (blood viscosity; intravenous once per day for 5 days, compared to solvent control group): decreased as dose increased | Effect against platelet aggregation induced by PAF (in words) [9]: very good anti-platelet aggregation effect | Cerebral blood flow (in words) (cerebral blood flow; [12]): significantly increase blood flow | Time for which blood flow was maintained (cerebral blood flow; [12]): about 15 min

O=C(/C=C/c1ccc(O)cc1)C1=C(O)C(O)(C2OC(CO)C(O)C(O)C2O)C([O][Ca][O]C2=C(C3OC(CO)C(O)C(O)C3O)C(=O)C(C(=O)/C=C/c3ccc(O)cc3)=C(O)C2(O)C2OC(CO)C(O)C(O)C2O)=C(C2OC(CO)C(O)C(O)C2O)C1=O (centres unmarked) [Calcium hydroxysafflor yellow A]
Evans blue leached out from cerebral vessel (in words) ([3]; rat, in vivo, iv): very significant effect of reducing Evans blue being leached out from cerebral vessel | Extent of myocardial infarction compared to hydroxysafflor yellow for injection (in words) ([5]; rat, in vivo): better efficacy in terms of reducing the extent of myocardial infarction | Effect on serum LDH and CK (in words) ([5]; rat, in vivo, iv): more significant efficacy | Effect on severity of arrhythmia (in words) ([5]; rat, in vivo, iv): more effective | AKP (IU/L) ([5]; rat, in vivo, iv, 40 mg/kg): 152 ± 24 IU/L | Arrhythmia ranking ([5]; rat, in vivo, iv, 40 mg/kg): 1.46 ± 0.3 | CK (IU/L) ([5]; rat, in vivo, iv, 40 mg/kg): 2139 ± 594 IU/L | Infarction area ([5]; rat, in vivo, iv, 40 mg/kg): 0.11 ± 0.04 g | Infarction rate (%) ([5]; rat, in vivo, iv, 40 mg/kg): 29 ± 6 % | LDH (IU/L) ([5]; rat, in vivo, iv, 40 mg/kg): 463 ± 65 IU/L | Survival duration (acute hypoxia; high dose): 37 min | Survival duration (acute hypoxia; low dose): 35 min | Survival duration (acute hypoxia; medium dose): 38 min | Weight of platelet adhered on the silk ([6]; rat, in vivo): 13.9 ± 1.54 mg and 10.26 ± 1.15 mg and 8.73 ± 1.79 mg | Dilation on cardiac vascular ring [7]: 37.1% | Dilation on cerebral vascular ring [8]: 69.7% | Area of cerebral infarction ([2]; rat, in vivo, iv): 41.3% and 25.7% and 21.6% | Blood viscosity effect compared with nimodipine positive control (in words) (blood viscosity; in vivo): superior to the positive control group | Blood viscosity, low shear, medium shear and high shear (in words) (blood viscosity; in vivo, iv): decreased as dose increased | Total purity ([1]; Accelerated 0 month): 1.2% | Total purity ([1]; Accelerated 1 month): 1.4% | Content ([1]; Accelerated 1 month): 95.6% | Total purity ([1]; Accelerated 2 months): 1.9% | Content ([1]; Accelerated 2 months): 95.1% | Total purity ([1]; Accelerated 3 months): 2.6% | Content ([1]; Accelerated 3 months): 94.5% | Cerebral blood flow (in words) (cerebral blood flow; dog, in vivo, iv): significantly increase blood flow | Time for which blood flow was maintained (cerebral blood flow; dog, in vivo, iv): about 15 min
